Results on 1 compound are retold here after ChEMBL document CHEMBL4808180, “Identification of 2,2-Dimethylbutanoic Acid (HST5040), a Clinical Development Candidate for the Treatment of Propionic Acidemia and Methylmalonic Acidemia” (J Med Chem, 2021).

The nature of data set [1]: Drug metabolism in cynomolgus monkey hepatocytes assessed as formation of 2,2-dimethylbutanoic acid-CoA incubated for 1 hrs by MS/MS analysis. The data set is classed as ADME, cell-based. The following applies: Macaca fascicularis, Hepatocyte.
The nature of data set [2]: Drug metabolism in Sprague-Dawley rat urine assessed as HST5040-carnitine metabolite formation at 10 mg/kg administered as single dose by LC/MS analysis. It counts as ADME, organism-based. As to conditions: in vivo; call rule not given here.
A short description of data set [3]: Drug metabolism in Sprague-Dawley rat plasma assessed as HST5040-carnitine metabolite formation at 10 mg/kg administered as single dose by LC/MS analysis. As to conditions: in vivo. It counts as ADME, organism-based.
Data set [4] in a line: AUC (0 to infinity) in Sprague-Dawley rat at 50 mg/kg, po. It counts as ADME, organism-based. Details: time infinity, route oral, dose 50 mg/kg. The following applies: in vivo.
A short description of data set [5]: Protein binding in Sprague-Dawley rat plasma at 40 uM incubated for 4 hrs by equilibrium dialysis. It counts as ADME, cell-free. On the technique in general: Equilibrium dialysis compares concentrations on both sides of a semipermeable membrane.
Data set [6] is described as follows: Drug metabolism in mouse hepatocytes assessed as formation of 2,2-dimethylbutanoic acid-CoA incubated for 1 hrs by MS/MS analysis. The data set is classed as ADME, cell-based. The following applies: Hepatocyte.
Data set [7] can be described thus: Reduction of 2-Methylcitric acid in human hepatocytes derived from propionic acidemia patient pretreated for 30 mins followed by 13C-isoleucine addition and measured after 1 hr by MS/MS analysis. It counts as functional, cell-based. The following applies: hepatocyte.
Data set [8] can be described thus: Drug metabolism in minipig hepatocytes assessed as beta-oxidation by measuring phase1 metabolite formation at 50 uM measured after 4 hrs. The data set is classed as ADME, cell-based, Sus scrofa domesticus, Hepatocyte. The following applies: pig.
Data set [9] is described as follows: Induction of toxicity in minipig assessed as increase in serum albumin concentration at 300 mg/kg/day. It counts as organism-based, Sus scrofa domesticus. The following applies: pig, in vivo.
Another data set relates to Hepatocyte. Put plainly: Cytotoxicity against minipig hepatocytes assessed as reduction in cell viability using radiolabeled compound. It counts as cell-based, Sus scrofa domesticus. The following applies: pig.
The target in data set [10] is T1, Multidrug and toxin extrusion protein 2 (Homo sapiens, UniProt Q86VL8).
T1 sequence (Q86VL8 whole entry): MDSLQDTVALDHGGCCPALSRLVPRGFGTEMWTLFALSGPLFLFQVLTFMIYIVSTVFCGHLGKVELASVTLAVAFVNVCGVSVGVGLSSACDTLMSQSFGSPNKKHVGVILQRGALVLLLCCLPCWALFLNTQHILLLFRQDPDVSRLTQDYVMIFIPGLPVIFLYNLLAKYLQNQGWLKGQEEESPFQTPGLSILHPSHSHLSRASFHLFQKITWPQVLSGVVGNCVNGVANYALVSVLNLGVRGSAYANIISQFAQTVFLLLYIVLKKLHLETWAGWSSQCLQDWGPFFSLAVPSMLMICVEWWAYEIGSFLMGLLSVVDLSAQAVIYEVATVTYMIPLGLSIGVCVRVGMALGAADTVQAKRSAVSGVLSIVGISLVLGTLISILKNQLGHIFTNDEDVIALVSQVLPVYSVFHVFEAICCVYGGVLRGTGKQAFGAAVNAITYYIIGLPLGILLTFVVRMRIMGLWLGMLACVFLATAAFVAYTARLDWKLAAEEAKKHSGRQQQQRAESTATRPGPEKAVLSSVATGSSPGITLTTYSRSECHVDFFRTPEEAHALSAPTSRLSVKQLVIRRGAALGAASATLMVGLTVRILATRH
Put plainly: Inhibition of human MATE2K assessed as reduction in MATE2K-mediated metformin transport at 14900 uM relative to control.

Data set [11] can be described thus: Oral bioavailability in CD1 mouse at 300 mg/kg. The data set is classed as ADME, organism-based. The following applies: in vivo.
For a further data set, the target named is T2, OATP1B3 (Homo sapiens, UniProt Q9NPD5).
T2 sequence (Q9NPD5 whole entry): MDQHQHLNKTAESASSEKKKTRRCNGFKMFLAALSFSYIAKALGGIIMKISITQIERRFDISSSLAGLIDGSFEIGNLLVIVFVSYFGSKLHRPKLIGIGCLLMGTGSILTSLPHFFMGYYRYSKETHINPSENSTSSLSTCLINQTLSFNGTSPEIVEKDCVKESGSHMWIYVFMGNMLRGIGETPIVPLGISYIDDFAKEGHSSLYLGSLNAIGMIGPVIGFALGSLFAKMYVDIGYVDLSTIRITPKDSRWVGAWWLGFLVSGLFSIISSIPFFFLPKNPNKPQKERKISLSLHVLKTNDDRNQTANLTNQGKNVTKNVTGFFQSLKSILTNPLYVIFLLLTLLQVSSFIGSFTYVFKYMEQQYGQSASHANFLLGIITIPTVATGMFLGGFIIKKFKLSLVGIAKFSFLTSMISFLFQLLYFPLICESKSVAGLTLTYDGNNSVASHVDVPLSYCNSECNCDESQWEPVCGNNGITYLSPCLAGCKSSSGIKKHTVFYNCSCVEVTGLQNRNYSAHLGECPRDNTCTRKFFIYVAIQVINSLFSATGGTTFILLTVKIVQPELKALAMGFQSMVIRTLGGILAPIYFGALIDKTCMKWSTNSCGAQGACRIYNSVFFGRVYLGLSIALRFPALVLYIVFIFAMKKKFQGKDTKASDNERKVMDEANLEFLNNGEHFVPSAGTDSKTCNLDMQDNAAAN
Put plainly: Inhibition of human OATP1B3 assessed as reduction in OATP1B3-mediated E217betaG transport at 14900 uM relative to control. As to conditions: not told, probe E217betaG.

The nature of data set [12]: Tmax in Sprague-Dawley rat at 10 mg/kg, po. It counts as ADME, organism-based. The following applies: in vivo.
The target in a further data set is T3, Cytochrome P450 2B6 (Homo sapiens, UniProt P20813).
T3 sequence (P20813 whole entry): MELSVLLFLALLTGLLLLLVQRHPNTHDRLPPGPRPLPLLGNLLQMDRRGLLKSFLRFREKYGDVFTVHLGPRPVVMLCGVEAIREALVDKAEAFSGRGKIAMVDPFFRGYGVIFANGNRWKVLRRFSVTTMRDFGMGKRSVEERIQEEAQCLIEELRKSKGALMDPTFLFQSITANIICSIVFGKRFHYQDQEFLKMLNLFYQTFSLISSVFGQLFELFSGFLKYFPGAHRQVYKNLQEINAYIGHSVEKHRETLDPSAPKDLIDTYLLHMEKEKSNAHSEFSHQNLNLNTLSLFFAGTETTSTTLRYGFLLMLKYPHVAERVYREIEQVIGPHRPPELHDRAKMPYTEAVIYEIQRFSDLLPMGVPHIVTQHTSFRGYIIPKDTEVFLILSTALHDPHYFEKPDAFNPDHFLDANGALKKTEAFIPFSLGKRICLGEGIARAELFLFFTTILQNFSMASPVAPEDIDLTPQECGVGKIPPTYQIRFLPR
The data set can be described thus: Time-dependent inhibition of CYP2B6 in human liver microsomes using bupropion as substrate preincubated for 30 mins. The data set is classed as ADME. On the technique in general: Liver microsomes are vesicles of endoplasmic reticulum, rich in cytochrome P450 enzymes.

The nature of data set [13]: Drug metabolism in Sprague-Dawley rat plasma assessed as HST5040-glucuronide metabolite formation at 10 mg/kg administered as single dose by LC/MS analysis. The data set is classed as ADME, organism-based. As to conditions: in vivo.
A short description of data set [14]: Drug level in Gottingen minipig blood at 10 mg/kg, po using radiolabeled compound measured after 72 hrs by quantitative whole-body autoradiography. The data set is classed as ADME, organism-based, Sus scrofa domesticus. As to conditions: pig, in vivo, BLD = below limit of detection.
A short description of data set [15]: AUC (0 to infinity) in CD1 mouse at 100 mg/kg, po. It counts as ADME, organism-based. More on the design: route oral, time infinity, dose 100 mg/kg. The following applies: in vivo.
A short description of data set [16]: Reduction of methylmalonyl-CoA in human hepatocytes derived from methylmalonic acidemia pretreated for 30 mins followed by 13C-isoleucine addition and measured after 1 hr by MS/MS analysis. It counts as functional, cell-based. The following applies: hepatocyte.
A short description of data set [17]: Induction of toxicity in minipig assessed as induction of adverse effect at 300 mg/kg/day. It counts as organism-based, Sus scrofa domesticus. As to conditions: pig, in vivo.
Data set [18] is described as follows: AUC (0 to infinity) in CD1 mouse at 30 mg/kg, iv. It counts as ADME, organism-based. Details: time infinity, route intravenous, dose 30 mg/kg. The following applies: in vivo.

Broadly, the EC50 is the concentration that produces a half-maximal response. For orientation: AUC(0-inf) means the area under the concentration-time curve extrapolated to infinity. As a reminder, the inhibition is the drop in the measured response relative to a control, in per cent. In general, Tmax refers to the time at which the peak concentration occurs. For orientation: IC50 means the point on the concentration scale where inhibition reaches its midpoint. With `CCC(C)(C)C(=O)O` [DIMEBUTIC ACID], the EC50 in data set [1] was determined as 46.2 µM; in [6], 130 µM; in data set [7], 1.1 µM; in data set [16], 2 µM. Also, the Drug metabolism result was “Metabolite_Detected” in data set [2], “Metabolite_Detected” in data set [3], “Metabolite_Notdetected” in data set [8] and “Metabolite_Detected” in data set [13]. The AUC(0-inf) in data set [4] was 33100 ng·h/mL; in data set [15] it was 219000 ng·h/mL; in data set [18], 70200 ng·h/mL. The same compound gave a PPB in data set [5] of 0%. Further, the Activity result in data set [9] is “Toxic”; in the data set on Hepatocyte it was “Non-Toxic”; in data set [17], “Non-Toxic”. Also, the “inhibition (INH)” value in data set [10] was “Not Active”. The compound also came in with a F in data set [11] of 177.5%. Further, the inhibition at 14900 µM at OATP1B3 was 31.5%. Further, the Tmax in data set [12] turned out to be 15 min. In addition, on Cytochrome P450 2B6, the IC50 is > 10000 µM. Also, the Drug uptake result in [14] is on record as “Bld”.
